Reference: PMC10141604, “Small-Molecule Inhibition of Androgen Receptor Dimerization as a Strategy against Prostate Cancer” (ACS Central Science, 2023)

What was measured:
LNCaP = assay: MTT cell viability assay, LNCaP; assay type: cell-based; details: 72 h
Method: (§1) 3-(4,5-dimethythiazol-2-yl)-2,5-diphenyl-2-H-tetrazolium bromide (MTT) colorimetric assay was employed to investigate cell viability. Cells were seeded into 96-well plates with 2-5× 10^3 cells per well (5× 10^3 cells/well for LNCaP, 22RV1, NIH-3T3, GES-1, Chang, […]
(§2) NCI-H1299, U2OS, U87) for 1 day incubation at 37 °C. Then, the cells were treated with various concentrations of compounds (22.86 nM - 50 μM) and incubated for 72 h. Then, 10 μl MTT (5 mg/ml) was added into each well and incubated for 4 h. Afterwards, 100 μl of triplex 10% SDS-0.1% HCl-phosophate-buffered saline (PBS) solutions was added into each well and incubated for overnight. The absorbance at 570 nm was measured (Eon, Bioteck, Winooski, VT). […]

AR LBP = biological target: T1, AR LBP (Rattus norvegicus, UniProt P15207); assay: Competitive ligand-binding assay (PolarScreen AR competitor assay)
T1 construct: purchased Invitrogen Life Technologies A15880
Method: Competitive Ligand Binding Assay
The binding affinities of M17 and M17-B15 to the LBP of AR LBD were determined
using PolarScreen™ Androgen Receptor Competitor Assay Kit (#A15880, Invitrogen Life
Technologies) according to the user manual. […]

[1] = system: secreted PSA from LNCaP cells; assay: Secreted prostate-specific antigen (PSA) assay; assay type: cell-based
Method: Secreted Prostate-Specific Antigen (PSA) Assay
After the AR transcriptional activity assay was completed, 300 μl of the media
supernatant including the secreted PSA was measured using […]® 2000 XPi
Immunoassay System (Siemens Ltd., Erlangen, Germany). […]

AR = biological target: T2, AR (Homo sapiens, UniProt P10275, T878A); assay: AR transcriptional activity assay (LNCaP-ARR2PB-eGFP cells); assay type: cell-based; details: 5 nM DHT
T2 construct: The cells of LNCaP-ARR2PB-eGFP were; endogenous in cells; host or cells: LNCaP-ARR2PB-eGFP
T2 sequence (P10275 1-920 T878A): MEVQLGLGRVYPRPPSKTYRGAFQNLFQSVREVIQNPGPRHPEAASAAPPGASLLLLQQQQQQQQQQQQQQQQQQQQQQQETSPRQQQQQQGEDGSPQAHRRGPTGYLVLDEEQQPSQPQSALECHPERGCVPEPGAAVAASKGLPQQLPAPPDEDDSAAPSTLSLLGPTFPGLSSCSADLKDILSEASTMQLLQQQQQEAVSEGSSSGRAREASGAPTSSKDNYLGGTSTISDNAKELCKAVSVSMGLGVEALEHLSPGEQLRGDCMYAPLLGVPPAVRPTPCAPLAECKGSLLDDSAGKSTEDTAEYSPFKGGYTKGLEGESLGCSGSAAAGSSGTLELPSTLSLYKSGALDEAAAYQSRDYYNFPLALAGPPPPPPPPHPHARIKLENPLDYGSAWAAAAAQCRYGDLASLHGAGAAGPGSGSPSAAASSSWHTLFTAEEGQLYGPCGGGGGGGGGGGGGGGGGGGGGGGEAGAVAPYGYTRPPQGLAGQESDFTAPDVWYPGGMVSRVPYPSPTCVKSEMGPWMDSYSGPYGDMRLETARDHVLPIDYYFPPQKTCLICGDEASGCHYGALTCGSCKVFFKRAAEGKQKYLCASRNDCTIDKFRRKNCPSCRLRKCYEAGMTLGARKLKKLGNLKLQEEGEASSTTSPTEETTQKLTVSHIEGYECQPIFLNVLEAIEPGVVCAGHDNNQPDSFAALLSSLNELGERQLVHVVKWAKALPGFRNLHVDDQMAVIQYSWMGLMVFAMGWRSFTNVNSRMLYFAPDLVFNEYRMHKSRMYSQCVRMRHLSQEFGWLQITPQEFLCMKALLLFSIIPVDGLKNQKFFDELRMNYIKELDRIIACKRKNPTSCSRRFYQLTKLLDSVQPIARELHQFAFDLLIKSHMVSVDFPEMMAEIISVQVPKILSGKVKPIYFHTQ
Method: University, Hangzhou, China), respectively. […]
AR Transcriptional Activity Assay
The AR transcriptional activities were determined using the constructed LNCaP-ARR2PB-eGFP cell as previously reported.11, 12 The cells of LNCaP-ARR2PB-eGFP were […]
by seeding into a 96 -well plate (3.5× 10^4 cells/well) for 1 day incubation at 37 °C. Then, the cells were treated with 5 nM DHT and various concentrations of compounds (10 μM […]
the fluorescence intensities were determined using a Synergy H1 microplate reader

NIH-3T3 = assay: MTT cell viability assay, NIH-3T3; assay type: cell-based, murine; details: 72 h
Method: as §1, §2

T1 sequence (P15207 651-882 limits assumed): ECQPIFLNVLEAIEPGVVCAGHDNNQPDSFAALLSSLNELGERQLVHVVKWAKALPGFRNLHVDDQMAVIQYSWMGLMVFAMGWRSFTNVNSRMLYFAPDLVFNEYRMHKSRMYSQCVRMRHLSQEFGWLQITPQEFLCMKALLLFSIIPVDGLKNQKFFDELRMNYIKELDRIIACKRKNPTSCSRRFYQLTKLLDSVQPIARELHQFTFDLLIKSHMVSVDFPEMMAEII

CC(=O)Cc1nsc(NC(=O)c2cc(-c3ccc(Cl)c(Cl)c3)oc2C)n1 [Compound M17]
inhibition of LNCaP viability (LNCaP): dose-dependent manner in the inhibition
binding to the conventional LBP (AR LBP): excluded
inhibition of the secretion of PSA [1]: dose-dependently inhibits
IC50 (AR; LNCaP-ARR2PB-eGFP cells, 3 days): 950 ± 390 nM
inhibition at 10 µM (AR; at 10 μM): 92.7%
cytotoxicity against NIH-3T3 (NIH-3T3): negligible cytotoxicity
